# Organism: Rattus norvegicus
# Assay: Open TG-GATES - Regimen: Single
# Type: toxicity, organism-based, Sprague-Dawley
# Design: regimen Single, gender Male, age 6 weeks
# Settings: in vivo, po, route gavage; for Eos / Fbg / Hb / Ht / Lym / MCH / MCHC / MCV / Mono / Neu / PT / Plat / RBC / Ret / WBC / APTT / Bas: tissue Blood; for KIDNEY_L / KIDNEY_R / KIDNEY_TOTAL: tissue Kidney; for LIVER: tissue Liver; for A/G / ALP / ALT / AST / BUN / CRE / Ca / Cl / DBIL / GLC / IP / K / LDH / Na / PL / RALB / TBIL / TC / TG / TP / gamma-GTP: tissue Plasma
# [1] = 30 mg/kg, 3 h, dose level Middle
# [2] = 30 mg/kg, 6 h, dose level Middle
# [3] = 30 mg/kg, 9 h, dose level Middle
smiles,measurement,setting,value
O=C1CN(/N=C/c2ccc([N+](=O)[O-])o2)C(=O)N1 [NITROFURANTOIN],Eos,"10 mg/kg, 24 h, dose level Low",1%
same,Fbg,"10 mg/kg, 24 h, dose level Low",212.8 mg/dL
same,Hb,"10 mg/kg, 24 h, dose level Low",13.1 g/dL
same,Ht,"10 mg/kg, 24 h, dose level Low",37.6%
same,Lym,"10 mg/kg, 24 h, dose level Low",80.2%
same,MCH,"10 mg/kg, 24 h, dose level Low",21.9 pg
same,MCHC,"10 mg/kg, 24 h, dose level Low",34.9%
same,MCV,"10 mg/kg, 24 h, dose level Low",62.7 fL
same,Mono,"10 mg/kg, 24 h, dose level Low",2.2%
same,Neu,"10 mg/kg, 24 h, dose level Low",15.4%
same,PT,"10 mg/kg, 24 h, dose level Low",12.6 s
same,Plat,"10 mg/kg, 24 h, dose level Low",126.9 x10_4/uL
same,RBC,"10 mg/kg, 24 h, dose level Low",599.6 x10_4/ul
same,Ret,"10 mg/kg, 24 h, dose level Low",7%
same,WBC,"10 mg/kg, 24 h, dose level Low",79.2 x10_2/uL
same,KIDNEY_L,"10 mg/kg, 24 h, dose level Low",1.1 g
same,KIDNEY_R,"10 mg/kg, 24 h, dose level Low",1.1 g
same,KIDNEY_TOTAL,"10 mg/kg, 24 h, dose level Low",2.1 g
same,LIVER,"10 mg/kg, 24 h, dose level Low",11.3 g
same,A/G,"10 mg/kg, 24 h, dose level Low",1.6
same,ALP,"10 mg/kg, 24 h, dose level Low",999.6 IU/L
same,ALT,"10 mg/kg, 24 h, dose level Low",38.4 IU/L
same,AST,"10 mg/kg, 24 h, dose level Low",63.4 IU/L
same,BUN,"10 mg/kg, 24 h, dose level Low",16.8 mg/dL
same,CRE,"10 mg/kg, 24 h, dose level Low",0.4 mg/dL
same,Ca,"10 mg/kg, 24 h, dose level Low",10.9 mg/dL
same,Cl,"10 mg/kg, 24 h, dose level Low",101.8 meq/L
same,DBIL,"10 mg/kg, 24 h, dose level Low",0.1 mg/dL
same,GLC,"10 mg/kg, 24 h, dose level Low",211.6 mg/dL
same,IP,"10 mg/kg, 24 h, dose level Low",7.1 mg/dL
same,K,"10 mg/kg, 24 h, dose level Low",4.3 meq/L
same,LDH,"10 mg/kg, 24 h, dose level Low",168.2 IU/L
same,Na,"10 mg/kg, 24 h, dose level Low",139.4 meq/L
same,PL,"10 mg/kg, 24 h, dose level Low",151.6 mg/dL
same,RALB,"10 mg/kg, 24 h, dose level Low",3.3 g/dL
same,TBIL,"10 mg/kg, 24 h, dose level Low",0.2 mg/dL
same,TC,"10 mg/kg, 24 h, dose level Low",78.8 mg/dL
same,TG,"10 mg/kg, 24 h, dose level Low",105.8 mg/dL
same,TP,"10 mg/kg, 24 h, dose level Low",5.4 g/dL
same,gamma-GTP,"10 mg/kg, 24 h, dose level Low",0.8 IU/L
same,TERMINAL_BW,[1],218.7 g
same,APTT,[1],18.8 s
same,Bas,[1],0%
same,Eos,[1],1.2%
same,Fbg,[1],219.2 mg/dL
same,Hb,[1],13.8 g/dL
same,Ht,[1],39.3%
same,Lym,[1],79%
same,MCH,[1],21.6 pg
same,MCHC,[1],35.2%
same,MCV,[1],61.4 fL
same,Mono,[1],2%
same,Neu,[1],16.8%
same,PT,[1],12.6 s
same,Plat,[1],113.7 x10_4/uL
same,RBC,[1],642 x10_4/ul
same,Ret,[1],7.5%
same,WBC,[1],82.7 x10_2/uL
same,KIDNEY_L,[1],1 g
same,KIDNEY_R,[1],1 g
same,KIDNEY_TOTAL,[1],2 g
same,LIVER,[1],10.8 g
same,A/G,[1],1.5
same,ALP,[1],1203 IU/L
same,ALT,[1],37.6 IU/L
same,AST,[1],66.6 IU/L
same,BUN,[1],12.8 mg/dL
same,CRE,[1],0.4 mg/dL
same,Ca,[1],10.6 mg/dL
same,Cl,[1],101.4 meq/L
same,DBIL,[1],0.074 mg/dL
same,GLC,[1],194.6 mg/dL
same,IP,[1],9 mg/dL
same,K,[1],4 meq/L
same,LDH,[1],180 IU/L
same,Na,[1],140.6 meq/L
same,PL,[1],136 mg/dL
same,RALB,[1],3.3 g/dL
same,TBIL,[1],0.1 mg/dL
same,TC,[1],74.6 mg/dL
same,TG,[1],62.2 mg/dL
same,TP,[1],5.5 g/dL
same,gamma-GTP,[1],0.8 IU/L
same,TERMINAL_BW,[2],219.6 g
same,APTT,[2],19 s
same,Bas,[2],0%
same,Eos,[2],1%
same,Fbg,[2],219 mg/dL
same,Hb,[2],13.3 g/dL
same,Ht,[2],37.6%
same,Lym,[2],75%
same,MCH,[2],21.5 pg
same,MCHC,[2],35.3%
same,MCV,[2],61 fL
same,Mono,[2],2.6%
same,Neu,[2],20%
same,PT,[2],12.7 s
same,Plat,[2],115.2 x10_4/uL
same,RBC,[2],616.2 x10_4/ul
same,Ret,[2],7.6%
same,WBC,[2],82.3 x10_2/uL
same,KIDNEY_L,[2],1 g
same,KIDNEY_R,[2],1 g
same,KIDNEY_TOTAL,[2],2 g
same,LIVER,[2],9.8 g
same,A/G,[2],1.6
same,ALP,[2],861.8 IU/L
same,ALT,[2],31 IU/L
same,AST,[2],58.8 IU/L
same,BUN,[2],11 mg/dL
same,CRE,[2],0.4 mg/dL
same,Ca,[2],10.6 mg/dL
same,Cl,[2],103.2 meq/L
same,DBIL,[2],0.072 mg/dL
same,GLC,[2],191 mg/dL
same,IP,[2],9.2 mg/dL
same,K,[2],4.1 meq/L
same,LDH,[2],168.6 IU/L
same,Na,[2],140.8 meq/L
same,PL,[2],132 mg/dL
same,RALB,[2],3.3 g/dL
same,TBIL,[2],0.1 mg/dL
same,TC,[2],73.4 mg/dL
same,TG,[2],64 mg/dL
same,TP,[2],5.4 g/dL
same,gamma-GTP,[2],0.8 IU/L
same,TERMINAL_BW,[3],216.9 g
same,APTT,[3],18.6 s
same,Bas,[3],0%
same,Eos,[3],0.8%
same,Fbg,[3],213.4 mg/dL
same,Hb,[3],13.3 g/dL
same,Ht,[3],38%
same,Lym,[3],79.6%
same,MCH,[3],21.9 pg
same,MCHC,[3],35.1%
same,MCV,[3],62.3 fL
same,Mono,[3],3.2%
same,Neu,[3],14.8%
same,PT,[3],12.9 s
same,Plat,[3],107.6 x10_4/uL
same,RBC,[3],609.8 x10_4/ul
same,Ret,[3],7.5%
same,WBC,[3],96.9 x10_2/uL
same,KIDNEY_L,[3],1 g
same,KIDNEY_R,[3],1 g
same,KIDNEY_TOTAL,[3],2 g
same,LIVER,[3],9.5 g

# — ChEMBL document CHEMBL3885861, “Open TG-GATES”
